Measurements published in US12065445B2, “CDK2 inhibitors and methods of using the same” (Cedilla Therapeutics, Inc., priority 2021, dated 2024).

These compounds were tested on Kuramochi cells (assay: BrdU Cell Proliferation Assay). Details: read-out: BrdU - KURAMOCHI.1: IC50.
Format: cell-based
Description: A BrdU assay was used as a measure of proliferation based on the DNA replication process of proliferating cells. BrdU, a pyrimidine analog, is added to the cell culture and incorporated into the DNA of proliferating cells. The presence of the BrdU analog was then measured through a colorimetric ELISA. After fixation and permeabilization of cells, peroxidase-conjugated antibody recognizing BrdU is added and allowed to incubate, followed by thorough washing to remove unbound antibody. In order to quantify the amount of bound antibody, peroxidase substrate is added and produces a color that can be measured at 450 nm.
On day −1, Kuramochi cells (Sekisui XenoTech JCRB0098) were seeded at 2,000 cells/well in columns 2-12 of a 96 well plate (Corning, CLS3596) in 150 μL media and allowed to adhere overnight at 37 degree with 5% CO2.
On day 0, the source plate was prepared by adding 10 mM compounds and performing 3-fold serial dilutions for a 10-point dose response of each compound. Using a multichannel pipette, 2 μL of the contents of the source plate were stamped into an intermediate plate with 500 μL of RPMI 1640 Media, GlutaMAX Supplement (Life Technologies, 61870127) in each well of a Nunc 96 DeepWell™ plate, non-treated 96 DeepWell plate, 2 mL/well, sterile, natural, 60/cs (Sigma Z717274) and mixed thoroughly. 50 μL from each well of this intermediate plate were added to 4 wells of a 96-well plate with previously seeded Kuramochi cells.
On day 4, the plates were developed using the BrdU ELISA Cell Proliferation Assay according to manufacturer's instructions (Roche, 11647229001). Briefly, BrdU was diluted 1:100 in Gibco®, OptiMEM® and 20 μL/well was added, shaken for 10 minutes at 350 rpm, and then returned to the incubator for 1 hour. Following incubation, the medium was discarded, and the cells were fixed by adding 200 μL of Fix/Denature solution. The anti-BrdU peroxidase antibody was diluted 1:1000 in OptiMEM, added at 100 μL/well, and incubated while shaking (350 rpm) for one hour. Three washes with PBS were performed to remove any unbound antibody, followed by the addition of 100 μL of substrate solution to each well. 25 μL/well of 1M sulfuric acid solution was then added to halt the reaction, and plates were read out using an Envision spectrophotometer (Perkin Elmer) set to read 450 nm absorbance. Background absorbance values from empty wells were subtracted from all samples and then normalized to DMSO treated wells.

Row | Compound | IC50 [µM]
1 | CNC(=O)[C@@H](NC(=O)[C@H]1CN(C(=O)c2cnc[nH]2)CC12CN(C(=O)[C@H]1CC1(C)C)C2)[C@@H](C)OCc1ccccc1 [I-44B] | > 10
2 | CNC(=O)[C@@H](NC(=O)[C@@H]1CN(C(=O)c2ccccn2)CC12CN(C(=O)[C@H]1CC1(C)C)C2)[C@@H](C)OCc1ccccc1 [I-45A] | > 10
3 | CNC(=O)[C@@H](NC(=O)[C@H]1CN(C(=O)c2ccccn2)CC12CN(C(=O)[C@H]1CC1(C)C)C2)[C@@H](C)OCc1ccccc1 [I-45B] | > 10
4 | CNC(=O)[C@@H](NC(=O)[C@@H]1CN(C(=O)c2ccncc2)CC12CN(C(=O)[C@H]1CC1(C)C)C2)[C@@H](C)OCc1ccccc1 [I-46A] | > 10
5 | CNC(=O)[C@@H](NC(=O)[C@H]1CN(C(=O)c2ccncc2)CC12CN(C(=O)[C@H]1CC1(C)C)C2)[C@@H](C)OCc1ccccc1 [I-46B] | > 10
6 | CNC(=O)[C@@H](NC(=O)[C@@H]1CN(Cc2cnn(C)c2)CC12CN(C(=O)[C@H]1CC1(C)C)C2)[C@@H](C)OCc1ccccc1 [I-47A] | > 10
7 | CNC(=O)[C@@H](NC(=O)[C@@H]1CN(C(=O)Nc2cnn(Cc3ccccc3)c2)CC12CN(C(=O)[C@H]1CC1(C)C)C2)[C@@H](C)OCc1ccccc1 [I-48A, (S)—N6-(1-benzyl-1H-pyrazol-4-yl)-N8-((2S,3R)-3-(benzyloxy)-1-(methylamino)-1-oxobutan-2-yl)-2-((S)-2,2-dimethylcyclopropane-1-carbonyl)-2,6-diazaspiro[3.4]octane-6,8-dicarboxamide] | > 10
8 | CNC(=O)[C@@H](NC(=O)[C@H]1CN(C(=O)Nc2cnn(Cc3ccccc3)c2)CC12CN(C(=O)[C@H]1CC1(C)C)C2)[C@@H](C)OCc1ccccc1 [I-48B] | > 10
9 | CNC(=O)[C@@H](NC(=O)[C@H]1CN(Cc2cccnc2)CC12CN(C(=O)[C@H]1CC1(C)C)C2)[C@@H](C)OCc1ccccc1 [I-49B] | > 10
10 | CNC(=O)[C@@H](NC(=O)[C@@H]1CN(Cc2cn[nH]c2)CC12CN(C(=O)[C@H]1CC1(C)C)C2)[C@@H](C)OCc1ccccc1 [I-50A] | > 10
11 | CNC(=O)[C@@H](NC(=O)[C@H]1CN(Cc2cn[nH]c2)CC12CN(C(=O)[C@H]1CC1(C)C)C2)[C@@H](C)OCc1ccccc1 [I-50B] | > 10
12 | CNC(=O)[C@@H](NC(=O)[C@H]1CN(Cc2cncs2)CC12CN(C(=O)[C@H]1CC1(C)C)C2)[C@@H](C)OCc1ccccc1 [I-51B] | > 10
13 | CNC(=O)[C@@H](NC(=O)[C@@H]1CN(C(=O)c2cnn(CC3CC3)c2)CC12CN(C(=O)CC1CC1)C2)[C@@H](C)OCc1ccccc1 [I-53A] | > 10
14 | CNC(=O)[C@@H](NC(=O)[C@H]1CN(C(=O)c2cnn(CC3CC3)c2)CC12CN(C(=O)CC1CC1)C2)[C@@H](C)OCc1ccccc1 [I-53B] | > 10
15 | CNC(=O)[C@@H](NC(=O)[C@@H]1CN(C(=O)c2cnn(Cc3ccccc3)c2)CC12CN(C(=O)C(C)C)C2)[C@@H](C)OCc1ccccc1 [I-54A] | > 10
16 | CNC(=O)[C@@H](NC(=O)[C@H]1CN(C(=O)c2cnn(Cc3ccccc3)c2)CC12CN(C(=O)C(C)C)C2)[C@@H](C)OCc1ccccc1 [I-54B] | > 10
17 | CNC(=O)[C@@H](NC(=O)[C@@H]1CN(Cc2ccncc2)CC12CN(C(=O)[C@H]1CC1(C)C)C2)[C@@H](C)OCc1ccccc1 [I-55A] | > 10
18 | CNC(=O)[C@@H](NC(=O)[C@H]1CN(Cc2ccncc2)CC12CN(C(=O)[C@H]1CC1(C)C)C2)[C@@H](C)OCc1ccccc1 [I-55B] | > 10
19 | CNC(=O)[C@@H](NC(=O)[C@@H]1CN(C(=O)c2cnn(Cc3ccccc3)c2)CC12CN(C(=O)CC1CC1)C2)[C@@H](C)OCC1CCCCC1 [I-56A] | > 10
20 | CNC(=O)[C@@H](NC(=O)[C@H]1CN(C(=O)c2cnn(Cc3ccccc3)c2)CC12CN(C(=O)CC1CC1)C2)[C@@H](C)OCC1CCCCC1 [I-56B] | > 10
21 | CC1(C)C[C@@H]1C(=O)N1CC2(CN(C(=O)c3cnn(Cc4ccccc4)c3)C[C@H]2C(=O)N2CCC(Cc3ccccc3)CC2)C1 [I-58A] | > 10
22 | CC1(C)C[C@@H]1C(=O)N1CC2(CN(C(=O)c3cnn(Cc4ccccc4)c3)C[C@@H]2C(=O)N2CCC(Cc3ccccc3)CC2)C1 [I-58B] | > 10

Row | Compound | IC50 [µM]
23 | CC1(C)C[C@@H]1C(=O)N1CC2(CN(C(=O)c3cnn(Cc4ccccc4)c3)C[C@H]2C(=O)NC2CCCN(C(=O)c3ccccc3)C2)C1 (stereo partly shown) [I-59A] | > 10
24 | CC1(C)C[C@@H]1C(=O)N1CC2(CN(C(=O)c3cnn(Cc4ccccc4)c3)C[C@@H]2C(=O)NC2CCCN(C(=O)c3ccccc3)C2)C1 (stereo partly shown) [I-59B] | > 10
25 | CCCC(=O)N1CC2(C1)CN(C(=O)c1cnn(Cc3ccccc3)c1)C[C@H]2C(=O)N[C@H](C(=O)NC)[C@@H](C)OCc1ccccc1 [I-60A] | > 10
26 | CCCC(=O)N1CC2(C1)CN(C(=O)c1cnn(Cc3ccccc3)c1)C[C@@H]2C(=O)N[C@H](C(=O)NC)[C@@H](C)OCc1ccccc1 [I-60B] | > 10
27 | CC1(C)C[C@@H]1C(=O)N1CC2(CN(C(=O)c3cnn(Cc4ccccc4)c3)C[C@H]2C(=O)NC2CCN(C(=O)c3ccccc3)CC2)C1 [I-61A] | > 10
28 | CC1(C)C[C@@H]1C(=O)N1CC2(CN(C(=O)c3cnn(Cc4ccccc4)c3)C[C@@H]2C(=O)NC2CCN(C(=O)c3ccccc3)CC2)C1 [I-61B] | > 10
29 | CNC(=O)[C@@H](NC(=O)[C@@H]1CN(C(=O)c2cnn(Cc3ccccc3)c2)CC12CN(C(=O)CC(C)(C)C)C2)[C@@H](C)OCc1ccccc1 [I-62A] | > 10
30 | CNC(=O)[C@@H](NC(=O)[C@H]1CN(C(=O)c2cnn(Cc3ccccc3)c2)CC12CN(C(=O)CC(C)(C)C)C2)[C@@H](C)OCc1ccccc1 [I-62B] | > 10
31 | CC1(C)C[C@@H]1C(=O)N1CC2(CN(C(=O)c3cnn(Cc4ccccc4)c3)C[C@H]2C(=O)Nc2cccc(-c3ccccc3)c2)C1 [I-63A] | 5 to 10
32 | CC1(C)C[C@@H]1C(=O)N1CC2(CN(C(=O)c3cnn(Cc4ccccc4)c3)C[C@@H]2C(=O)Nc2cccc(-c3ccccc3)c2)C1 [I-63B] | > 10
33 | COCC1CCCN(C(=O)[C@@H](NC(=O)C2CN(C(=O)c3cnn(Cc4ccccc4)c3)CC23CN(C(=O)[C@H]2CC2(C)C)C3)[C@@H](C)OCc2ccccc2)C1 (stereo partly shown) [I-64] | 0.5 to 5
34 | CNC(=O)[C@@H](NC(=O)[C@@H]1CN(C(=O)c2cnn(Cc3ccccc3)c2)CC12CN(C(=O)C(C)(C)C)C2)[C@@H](C)OCc1ccccc1 [I-65A] | > 10
35 | CNC(=O)[C@@H](NC(=O)[C@H]1CN(C(=O)c2cnn(Cc3ccccc3)c2)CC12CN(C(=O)C(C)(C)C)C2)[C@@H](C)OCc1ccccc1 [I-65B] | > 10
36 | CNC(=O)[C@@H](NC(=O)[C@@H]1CN(C(=O)c2cn[nH]c2)CC12CN(C(=O)[C@H]1CC1(C)C)C2)[C@@H](C)OCC1CCCCC1 [I-66A, (S)—N-((2S,3R)-3-(cyclohexylmethoxy)-1-(methylamino)-1-oxobutan-2-yl)-2-((S)-2,2-dimethylcyclopropane-1-carbonyl)-6-(1H-pyrazole-4-carbonyl)-2,6-diazaspiro[3.4]octane-8-carboxamide] | > 10
37 | CNC(=O)[C@@H](NC(=O)[C@H]1CN(C(=O)c2cn[nH]c2)CC12CN(C(=O)[C@H]1CC1(C)C)C2)[C@@H](C)OCC1CCCCC1 [I-66B] | > 10
38 | CNC(=O)[C@@H](NC(=O)[C@@H]1CN(C(=O)c2cnn(Cc3ccccc3)c2)CC12CN(C(=O)C1(C)CC1)C2)[C@@H](C)OCc1ccccc1 [I-67A, (S)-6-(1-benzyl-1H-pyrazole-4-carbonyl)-N-((2S,3R)-3-(benzyloxy)-1-(methylamino)-1-oxobutan-2-yl)-2-(1-methylcyclopropane-1-carbonyl)-2,6-diazaspiro[3.4]octane-8-carboxamide] | > 10
39 | CNC(=O)[C@@H](NC(=O)[C@H]1CN(C(=O)c2cnn(Cc3ccccc3)c2)CC12CN(C(=O)C1(C)CC1)C2)[C@@H](C)OCc1ccccc1 [I-67B] | > 10
40 | CNC(=O)[C@@H](NC(=O)[C@@H]1CN(CC2CCOCC2)CC12CN(C(=O)[C@H]1CC1(C)C)C2)[C@@H](C)OCc1ccccc1 [I-68A] | > 10
41 | CNC(=O)[C@@H](NC(=O)[C@@H]1CN(C(=O)c2cnn(Cc3ccccc3)c2)CC12CN(C(=O)CC(C)C)C2)[C@@H](C)OCc1ccccc1 [I-69A] | > 10
42 | CNC(=O)[C@@H](NC(=O)[C@H]1CN(C(=O)c2cnn(Cc3ccccc3)c2)CC12CN(C(=O)CC(C)C)C2)[C@@H](C)OCc1ccccc1 [I-69B] | > 10
43 | CNC(=O)[C@@H](NC(=O)[C@@H]1CN(C(=O)C2CCNC2)CC12CN(C(=O)[C@H]1CC1(C)C)C2)[C@@H](C)OCc1ccccc1 (stereo partly drawn) [I-70A, (8S)—N-((2S,3R)-3-(benzyloxy)-1-(methylamino)-1-oxobutan-2-yl)-2-((S)-2,2-dimethylcyclopropane-1-carbonyl)-6-(pyrrolidine-3-carbonyl)-2,6-diazaspiro[3.4]octane-8-carboxamide] | > 10
